This data set is described as follows: in vitro. Conditions: human. The data set is classed as in vitro ADME. A digest of the protocol: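 Permeability measured in both directions across 19-day Caco-2 layers with TEER above 600 […], incubated at 37° C without shaking; donor and receiver sampled at 10 and 90 min for LC/MS/MS. Derived values: Papp (cm/s), efflux ratio, recovery.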

The source of these data is US12102648B2, “Orally-bioavailable nucleoside analogs” (priority 2021, dated 2024).

Where two headings read alike, the source gives them in different places. Bounds are passed on as bounds.

In the case of `CC(=O)OCOC(=O)Nc1ncnn2c([C@]3(C#N)O[C@H](COC(=O)CC4(N)CCCCC4)[C@@H](O)[C@H]3O)ccc12` [Compound 363, ((2R,3S,4R,5R)-5-(4-(((acetoxymethoxy)carbonyl)amino)pyrrolo[2,1-f][1,2,4]triazin-7-yl)-5-cyano-3,4-dihydroxytetrahydrofuran-2-yl)methyl 2-(1-aminocyclohexyl)acetate], for the setting “Caco-2”, the Papp A→B at 90 min amounted to 0.7 nm/s, the apparent permeability from basolateral to apical (Papp B→A) at 90 min worked out at 0.2 nm/s and the efflux ratio at 90 min amounted to 0.33.

As to `CCC(=O)O[C@H]1[C@@H](O)[C@](C#N)(c2ccc3c(NC(=O)OCOC(C)=O)ncnn23)O[C@@H]1COC(=O)[C@@H](N)C(C)C` [Compound 364, ((2R,3S,4R,5R)-5-(4-(((acetoxymethoxy)carbonyl)amino)pyrrolo[2,1-f][1,2,4]triazin-7-yl)-5-cyano-4-hydroxy-3-(propionyloxy)tetrahydrofuran-2-yl)methyl L-valinate], where the note is “Caco-2”, the Papp A→B at 90 min is 18 nm/s, the Papp B→A at 90 min was 20 nm/s and the efflux ratio at 90 min amounted to 1.1.

Take `CCC(=O)O[C@H]1[C@@H](O)[C@](C#N)(c2ccc3c(NC(=O)OCOC(=O)C(C)(C)C)ncnn23)O[C@@H]1COC(=O)[C@@H](N)C(C)C` [Compound 365, ((2R,3S,4R,5R)-5-cyano-4-hydroxy-5-(4-((((pivaloyloxy)methoxy)carbonyl)amino)pyrrolo[2,1-f][1,2,4]triazin-7-yl)-3-(propionyloxy)tetrahydrofuran-2-yl)methyl L-valinate]: for the setting “Caco-2”, the Papp A→B at 90 min came to 15 nm/s, the Papp B→A at 90 min amounted to 41 nm/s and the efflux ratio at 90 min turned out to be 2.8.

For `CC(=O)OCOC(=O)OC[C@H]1O[C@@](C#N)(c2ccc3c(NC(=O)[C@@H](N)Cc4ccc(F)cc4)ncnn23)[C@H](O)[C@@H]1O` [Compound 366, (((((2R,3S,4R,5R)-5-(4-((S)-2-amino-3-(4-fluorophenyl)propanamido)pyrrolo[2,1-f][1,2,4]triazin-7-yl)-5-cyano-3,4-dihydroxytetrahydrofuran-2-yl)methoxy)carbonyl)oxy)methyl acetate], for the setting “Caco-2”, the Papp A→B at 90 min stood at 27 nm/s, the Papp B→A at 90 min came out at 11 nm/s and the efflux ratio at 90 min was 0.39.

In the case of `CC(C)(C)C(=O)OCOC(=O)Nc1ncnn2c([C@]3(C#N)O[C@H](COC(=O)CC4(N)CCCCC4)[C@@H](O)[C@H]3O)ccc12` [Compound 367, (((7-((2R,3R,4S,5R)-5-((2-(1-aminocyclohexyl)acetoxy)methyl)-2-cyano-3,4-dihydroxytetrahydrofuran-2-yl)pyrrolo[2,1-f][1,2,4]triazin-4-yl)carbamoyl)oxy)methyl pivalate], under “Caco-2”, the Papp A→B at 90 min was 28 nm/s, the Papp B→A at 90 min came to 16 nm/s and the efflux ratio at 90 min amounted to 0.57.

With `N#C[C@@]1(c2ccc3c(N)ncnn23)O[C@H](COC(=O)CC2(N)CCCCC2)[C@@H](OC(=O)CC2CCCCC2)[C@H]1O` [Compound 368, (2R,3S,4R,5R)-2-((2-(1-aminocyclohexyl)acetoxy)methyl)-5-(4-aminopyrrolo[2,1-f][1,2,4]triazin-7-yl)-5-cyano-4-hydroxytetrahydrofuran-3-yl 2-cyclohexylacetate], for the setting “Caco-2”, the Papp A→B at 90 min worked out at 14 nm/s, the Papp B→A at 90 min came out at 180 nm/s and the efflux ratio at 90 min came to 13.

As for `CC(C)(C)C(=O)OCOC(=O)Nc1ncnn2c([C@]3(C#N)O[C@H](CO)[C@@H](OC(=O)CC4CCCCC4)[C@H]3O)ccc12` [Compound 370, (((7-((2R,3R,4S,5R)-2-cyano-4-(2-cyclohexylacetoxy)-3-hydroxy-5-(hydroxymethyl)tetrahydrofuran-2-yl)pyrrolo[2,1-f][1,2,4]triazin-4-yl)carbamoyl)oxy)methyl pivalate], for the setting “Caco-2”, the Papp A→B at 90 min came to 3 nm/s, the Papp B→A at 90 min came out at 2.3 nm/s and the efflux ratio at 90 min amounted to 0.77.

Take `CC(C)(C)[C@H](N)C(=O)OC[C@H]1O[C@@](C#N)(c2ccc3c(N)ncnn23)[C@H](O)[C@@H]1OC(=O)CC1CCCCC1` [Compound 371, ((2R,3S,4R,5R)-5-(4-aminopyrrolo[2,1-f][1,2,4]triazin-7-yl)-5-cyano-3-(2-cyclohexylacetoxy)-4-hydroxytetrahydrofuran-2-yl)methyl (S)-2-amino-3,3-dimethylbutanoate]: where the note is “Caco-2”, the Papp A→B at 90 min came to 150 nm/s, the Papp B→A at 90 min was found to be 210 nm/s and the efflux ratio at 90 min was 1.3.

With `N#C[C@@]1(c2ccc3c(N)ncnn23)O[C@H](COC(=O)[C@@H](N)Cc2ccccc2)[C@@H](OC(=O)CC2CCCCC2)[C@H]1O` [Compound 372, ((2R,3S,4R,5R)-5-(4-aminopyrrolo[2,1-f][1,2,4]triazin-7-yl)-5-cyano-3-(2-cyclohexylacetoxy)-4-hydroxytetrahydrofuran-2-yl)methyl L-phenylalaninate], under “Caco-2”, the Papp A→B at 90 min was 7.3 nm/s, the Papp B→A at 90 min was 8.3 nm/s and the efflux ratio at 90 min stood at 1.1.

With `CC(=O)Nc1ncnn2c([C@]3(C#N)O[C@H](COC(=O)[C@@H](N)C(C)(C)C)[C@@H](OC(=O)CC4CCCCC4)[C@H]3O)ccc12` [Compound 373, ((2R,3S,4R,5R)-5-(4-acetamidopyrrolo[2,1-f][1,2,4]triazin-7-yl)-5-cyano-3-(2-cyclohexylacetoxy)-4-hydroxytetrahydrofuran-2-yl)methyl (S)-2-amino-3,3-dimethylbutanoate], where the note is “Caco-2”, the Papp A→B at 90 min came to 240 nm/s, the Papp B→A at 90 min is 290 nm/s and the efflux ratio at 90 min was determined as 1.2.

For `CC(C)(C)C(=O)OCOC(=O)Nc1ncnn2c([C@]3(C#N)O[C@H](COC(=O)[C@@H](N)Cc4ccccc4)[C@@H](OC(=O)CC4CCCCC4)[C@H]3O)ccc12` [Compound 374, (((7-((2R,3R,4S,5R)-5-(((L-phenylalanyl)oxy)methyl)-2-cyano-4-(2-cyclohexylacetoxy)-3-hydroxytetrahydrofuran-2-yl)pyrrolo[2,1-f][1,2,4]triazin-4-yl)carbamoyl)oxy)methyl pivalate], under “Caco-2”, the Papp A→B at 90 min was determined as 0.04 nm/s, the Papp B→A at 90 min turned out to be 0.8 nm/s and the efflux ratio at 90 min was found to be 19.

Regarding `CC(C)(C)C(=O)OCOC(=O)Nc1ncnn2c([C@]3(C#N)O[C@H](COC(=O)C(C)(C)C4CCCCC4)[C@@H](O)[C@H]3O)ccc12` [Compound 375, ((2R,3S,4R,5R)-5-cyano-3,4-dihydroxy-5-(4-((((pivaloyloxy)methoxy)carbonyl)amino)pyrrolo[2,1-f][1,2,4]triazin-7-yl)tetrahydrofuran-2-yl)methyl 2-cyclohexyl-2-methylpropanoate], for the setting “Caco-2”, the Papp A→B at 90 min was found to be 0.2 nm/s, the Papp B→A at 90 min came out at 0.2 nm/s and the efflux ratio at 90 min worked out at 1.1.

Consider `CCCCOC(=O)Nc1ncnn2c([C@]3(C#N)O[C@H](COC(=O)C(C)(C)C4CCCCC4)[C@@H](O)[C@H]3O)ccc12` [Compound 379, ((2R,3S,4R,5R)-5-(4-((butoxycarbonyl)amino)pyrrolo[2,1-f][1,2,4]triazin-7-yl)-5-cyano-3,4-dihydroxytetrahydrofuran-2-yl)methyl 2-cyclohexyl-2-methylpropanoate], for which, where the note is “Caco-2”, the Papp A→B at 90 min was determined as 16 nm/s, the Papp B→A at 90 min is 25 nm/s and the efflux ratio at 90 min came out at 1.6.

As for `Cc1oc(=O)oc1COC(=O)Nc1ncnn2c([C@]3(C#N)O[C@H](COC(=O)Cc4ccccc4)[C@@H](OC(=O)[C@@H](N)C(C)C)[C@H]3O)ccc12` [Compound 383, (2R,3S,4R,5R)-5-cyano-4-hydroxy-5-(4-((((5-methyl-2-oxo-1,3-dioxol-4-yl)methoxy)carbonyl)amino)pyrrolo[2,1-f][1,2,4]triazin-7-yl)-2-((2-phenylacetoxy)methyl)tetrahydrofuran-3-yl L-valinate], the Papp A→B at 90 min (Caco-2 monolayer, apical to basolateral, 90-minute incubation, read-out: Papp, A-B) is < 10 nm/s. Where the note is “Caco-2 monolayer, basolateral to apical, 90-minute incubation, read-out: Papp, B-A”, the Papp B→A at 90 min is < 10 nm/s.

Regarding `Cc1oc(=O)oc1COC(=O)Nc1ncnn2c([C@]3(C#N)O[C@H](COC(=O)CC4CCCCC4)[C@@H](OC(=O)[C@@H](N)C(C)C)[C@H]3O)ccc12` [Compound 385, (2R,3S,4R,5R)-5-cyano-2-((2-cyclohexylacetoxy)methyl)-4-hydroxy-5-(4-((((5-methyl-2-oxo-1,3-dioxol-4-yl)methoxy)carbonyl)amino)pyrrolo[2,1-f][1,2,4]triazin-7-yl)tetrahydrofuran-3-yl L-valinate], under “Caco-2”, the Papp A→B at 90 min is < 10 nm/s and the Papp B→A at 90 min was < 10 nm/s.

Take `CC(C)(C)[C@@H](N)C(=O)OC[C@H]1O[C@@](C#N)(c2ccc3c(N)ncnn23)[C@H](O)[C@@H]1OC(=O)CC1CCCCC1` [Compound 392]: for the setting “Caco-2”, the Papp A→B at 90 min worked out at 56 nm/s, the Papp B→A at 90 min came out at 164 nm/s and the efflux ratio at 90 min was determined as 3.

Consider `CC(C)(C)C(=O)OCOC(=O)Nc1ncnn2c([C@]3(C#N)O[C@H](COC(=O)[C@@H](N)C(C)(C)C)[C@@H](O)[C@H]3O)ccc12` [Compound 395, ((2R,3S,4R,5R)-5-cyano-3,4-dihydroxy-5-(4-((((pivaloyloxy)methoxy)carbonyl)amino)pyrrolo[2,1-f][1,2,4]triazin-7-yl)tetrahydrofuran-2-yl)methyl (S)-2-amino-3,3-dimethylbutanoate], for which, where the note is “Caco-2”, the Papp A→B at 90 min was found to be 0.1 nm/s, the Papp B→A at 90 min was 2.4 nm/s and the efflux ratio at 90 min stood at 19.2.

With `CC(C)(C)[C@H](N)C(=O)O[C@H]1[C@@H](O)[C@](C#N)(c2ccc3c(N)ncnn23)O[C@@H]1COC(=O)CC1CCCCC1` [Compound 397, (2R,3S,4R,5R)-5-(4-aminopyrrolo[2,1-f][1,2,4]triazin-7-yl)-5-cyano-2-((2-cyclohexylacetoxy)methyl)-4-hydroxytetrahydrofuran-3-yl (S)-2-amino-3,3-dimethylbutanoate], for the setting “Caco-2”, the Papp A→B at 90 min is 28 nm/s, the Papp B→A at 90 min came out at 73 nm/s and the efflux ratio at 90 min came to 2.6.
